Measured values as given in ChEMBL document CHEMBL5291721, “A preclinical secondary pharmacology resource illuminates target-adverse drug reaction associations of marketed drugs” (Nat Commun, 2023).

Tests used:
[1] = target: 5-hydroxytryptamine receptor 2A (Homo sapiens, UniProt P28223); format: functional, cell-based
[2] = target: Voltage-dependent L-type calcium channel subunit alpha-1C (Rattus norvegicus, UniProt P22002); format: functional
[3] = target: Kappa-type opioid receptor (Homo sapiens, UniProt P41145)
[4] = target: Glutamate receptor ionotropic, NMDA 1 (Rattus norvegicus, UniProt P35439)
[5] = target: 5-hydroxytryptamine receptor 2B (Homo sapiens, UniProt P41595); format: functional, cell-based
[6] = target: T1, Alpha-2A adrenergic receptor (Homo sapiens, UniProt P08913); format: functional, cell-based
T1 sequence (P08913 whole entry): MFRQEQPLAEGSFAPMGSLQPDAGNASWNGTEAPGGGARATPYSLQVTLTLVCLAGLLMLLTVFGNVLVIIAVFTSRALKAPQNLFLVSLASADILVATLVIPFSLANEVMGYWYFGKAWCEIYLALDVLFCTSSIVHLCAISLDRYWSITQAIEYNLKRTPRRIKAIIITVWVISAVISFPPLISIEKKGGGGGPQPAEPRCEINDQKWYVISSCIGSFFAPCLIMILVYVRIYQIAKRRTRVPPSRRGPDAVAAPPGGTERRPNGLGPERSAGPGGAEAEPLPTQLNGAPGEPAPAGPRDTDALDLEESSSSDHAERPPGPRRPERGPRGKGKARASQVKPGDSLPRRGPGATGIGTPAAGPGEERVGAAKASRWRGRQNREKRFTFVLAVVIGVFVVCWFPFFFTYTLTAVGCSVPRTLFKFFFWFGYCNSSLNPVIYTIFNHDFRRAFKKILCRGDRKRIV

D(1A) dopamine receptor [7] = target: T2, D(1A) dopamine receptor (Homo sapiens, UniProt P21728); format: functional, cell-based
T2 sequence (P21728 whole entry): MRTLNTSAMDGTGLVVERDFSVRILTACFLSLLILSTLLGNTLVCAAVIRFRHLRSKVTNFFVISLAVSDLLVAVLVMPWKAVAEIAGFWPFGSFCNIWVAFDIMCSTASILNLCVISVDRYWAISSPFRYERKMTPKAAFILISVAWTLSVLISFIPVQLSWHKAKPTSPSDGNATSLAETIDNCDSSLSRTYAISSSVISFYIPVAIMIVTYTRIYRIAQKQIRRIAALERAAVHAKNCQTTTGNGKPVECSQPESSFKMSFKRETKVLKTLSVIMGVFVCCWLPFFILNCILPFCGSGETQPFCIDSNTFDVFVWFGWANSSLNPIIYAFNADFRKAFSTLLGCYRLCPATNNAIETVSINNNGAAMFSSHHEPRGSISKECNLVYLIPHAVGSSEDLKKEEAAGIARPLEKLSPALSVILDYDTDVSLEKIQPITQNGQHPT

[8] = target: Beta-2 adrenergic receptor (Homo sapiens, UniProt P07550)
Sequence of Beta-2 adrenergic receptor (P07550 whole entry): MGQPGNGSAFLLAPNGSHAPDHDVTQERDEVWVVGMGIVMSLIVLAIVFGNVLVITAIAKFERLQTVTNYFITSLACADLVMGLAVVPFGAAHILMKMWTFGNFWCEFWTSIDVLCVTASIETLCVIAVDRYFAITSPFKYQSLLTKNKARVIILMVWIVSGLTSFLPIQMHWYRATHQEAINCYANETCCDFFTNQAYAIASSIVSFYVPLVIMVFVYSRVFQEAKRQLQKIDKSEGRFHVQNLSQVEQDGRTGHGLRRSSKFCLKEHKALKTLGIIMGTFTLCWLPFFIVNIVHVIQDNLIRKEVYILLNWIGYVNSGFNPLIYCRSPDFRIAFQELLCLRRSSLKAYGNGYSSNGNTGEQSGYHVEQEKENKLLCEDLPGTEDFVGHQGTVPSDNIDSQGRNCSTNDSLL

Histamine H3 receptor = Histamine H3 receptor (Homo sapiens, UniProt Q9Y5N1)
[9] = target: Gamma-aminobutyric acid receptor subunit alpha-1 (Rattus norvegicus, UniProt P62813)
Sequence of Gamma-aminobutyric acid receptor subunit alpha-1 (P62813 whole entry): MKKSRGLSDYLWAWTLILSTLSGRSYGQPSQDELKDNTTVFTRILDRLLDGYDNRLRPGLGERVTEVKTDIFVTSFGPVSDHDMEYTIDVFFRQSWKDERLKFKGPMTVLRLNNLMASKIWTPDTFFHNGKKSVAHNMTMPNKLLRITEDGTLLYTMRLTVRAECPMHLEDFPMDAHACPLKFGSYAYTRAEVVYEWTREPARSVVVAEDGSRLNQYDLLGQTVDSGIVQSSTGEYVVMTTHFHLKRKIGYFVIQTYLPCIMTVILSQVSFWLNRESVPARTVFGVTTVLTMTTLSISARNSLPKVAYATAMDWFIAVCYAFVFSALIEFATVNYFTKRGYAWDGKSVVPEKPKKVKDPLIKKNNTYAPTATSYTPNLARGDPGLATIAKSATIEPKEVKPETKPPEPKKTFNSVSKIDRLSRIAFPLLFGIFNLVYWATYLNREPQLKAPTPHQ

D(1A) dopamine receptor [10] = target: T2, D(1A) dopamine receptor
[11] = target: Prostaglandin G/H synthase 1 (Homo sapiens, UniProt P23219); format: functional
Sequence of Prostaglandin G/H synthase 1 (P23219 whole entry): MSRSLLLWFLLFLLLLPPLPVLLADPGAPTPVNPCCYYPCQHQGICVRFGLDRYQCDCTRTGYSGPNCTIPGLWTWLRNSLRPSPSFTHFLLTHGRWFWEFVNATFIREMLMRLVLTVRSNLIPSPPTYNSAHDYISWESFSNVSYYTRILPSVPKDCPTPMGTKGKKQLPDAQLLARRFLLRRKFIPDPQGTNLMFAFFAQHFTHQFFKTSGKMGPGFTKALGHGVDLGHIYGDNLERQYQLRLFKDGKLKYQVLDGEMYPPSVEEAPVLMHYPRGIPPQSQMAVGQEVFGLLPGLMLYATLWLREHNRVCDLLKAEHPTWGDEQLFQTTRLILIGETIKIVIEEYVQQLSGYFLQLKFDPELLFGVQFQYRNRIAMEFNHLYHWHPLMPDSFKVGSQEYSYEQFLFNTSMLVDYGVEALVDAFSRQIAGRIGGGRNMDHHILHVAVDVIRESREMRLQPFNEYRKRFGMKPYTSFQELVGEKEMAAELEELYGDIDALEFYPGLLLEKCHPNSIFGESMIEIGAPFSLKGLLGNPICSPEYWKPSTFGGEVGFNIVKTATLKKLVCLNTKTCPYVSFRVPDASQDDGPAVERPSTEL

Mu-type opioid receptor = Mu-type opioid receptor (Homo sapiens, UniProt P35372)
[12] = target: Gamma-aminobutyric acid receptor subunit alpha-1/alpha-2/beta-2/gamma-2 (Homo sapiens, UniProt P14867+P18507+P47869+P47870); format: protein-complex assay
[13] = target: T1, Alpha-2A adrenergic receptor
[14] = target: Sodium-dependent dopamine transporter (Homo sapiens, UniProt Q01959)
[15] = target: cGMP-inhibited 3',5'-cyclic phosphodiesterase 3A (Homo sapiens, UniProt Q14432); format: functional
Thromboxane A2 receptor = target: T3, Thromboxane A2 receptor (Homo sapiens, UniProt P21731); format: functional, cell-based
T3 sequence (P21731 whole entry): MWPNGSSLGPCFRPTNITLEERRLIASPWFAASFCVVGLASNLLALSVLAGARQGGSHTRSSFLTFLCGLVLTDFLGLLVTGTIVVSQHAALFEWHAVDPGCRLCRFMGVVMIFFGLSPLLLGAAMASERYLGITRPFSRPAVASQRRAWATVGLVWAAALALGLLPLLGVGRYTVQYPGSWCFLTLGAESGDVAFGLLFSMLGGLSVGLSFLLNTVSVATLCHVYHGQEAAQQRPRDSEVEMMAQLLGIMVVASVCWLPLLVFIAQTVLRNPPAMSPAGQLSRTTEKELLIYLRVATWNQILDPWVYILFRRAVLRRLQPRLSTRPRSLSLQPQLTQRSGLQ

[16] = target: Vascular endothelial growth factor receptor 2 (Homo sapiens, UniProt P35968); format: functional
Sequence of Vascular endothelial growth factor receptor 2 (P35968 whole entry): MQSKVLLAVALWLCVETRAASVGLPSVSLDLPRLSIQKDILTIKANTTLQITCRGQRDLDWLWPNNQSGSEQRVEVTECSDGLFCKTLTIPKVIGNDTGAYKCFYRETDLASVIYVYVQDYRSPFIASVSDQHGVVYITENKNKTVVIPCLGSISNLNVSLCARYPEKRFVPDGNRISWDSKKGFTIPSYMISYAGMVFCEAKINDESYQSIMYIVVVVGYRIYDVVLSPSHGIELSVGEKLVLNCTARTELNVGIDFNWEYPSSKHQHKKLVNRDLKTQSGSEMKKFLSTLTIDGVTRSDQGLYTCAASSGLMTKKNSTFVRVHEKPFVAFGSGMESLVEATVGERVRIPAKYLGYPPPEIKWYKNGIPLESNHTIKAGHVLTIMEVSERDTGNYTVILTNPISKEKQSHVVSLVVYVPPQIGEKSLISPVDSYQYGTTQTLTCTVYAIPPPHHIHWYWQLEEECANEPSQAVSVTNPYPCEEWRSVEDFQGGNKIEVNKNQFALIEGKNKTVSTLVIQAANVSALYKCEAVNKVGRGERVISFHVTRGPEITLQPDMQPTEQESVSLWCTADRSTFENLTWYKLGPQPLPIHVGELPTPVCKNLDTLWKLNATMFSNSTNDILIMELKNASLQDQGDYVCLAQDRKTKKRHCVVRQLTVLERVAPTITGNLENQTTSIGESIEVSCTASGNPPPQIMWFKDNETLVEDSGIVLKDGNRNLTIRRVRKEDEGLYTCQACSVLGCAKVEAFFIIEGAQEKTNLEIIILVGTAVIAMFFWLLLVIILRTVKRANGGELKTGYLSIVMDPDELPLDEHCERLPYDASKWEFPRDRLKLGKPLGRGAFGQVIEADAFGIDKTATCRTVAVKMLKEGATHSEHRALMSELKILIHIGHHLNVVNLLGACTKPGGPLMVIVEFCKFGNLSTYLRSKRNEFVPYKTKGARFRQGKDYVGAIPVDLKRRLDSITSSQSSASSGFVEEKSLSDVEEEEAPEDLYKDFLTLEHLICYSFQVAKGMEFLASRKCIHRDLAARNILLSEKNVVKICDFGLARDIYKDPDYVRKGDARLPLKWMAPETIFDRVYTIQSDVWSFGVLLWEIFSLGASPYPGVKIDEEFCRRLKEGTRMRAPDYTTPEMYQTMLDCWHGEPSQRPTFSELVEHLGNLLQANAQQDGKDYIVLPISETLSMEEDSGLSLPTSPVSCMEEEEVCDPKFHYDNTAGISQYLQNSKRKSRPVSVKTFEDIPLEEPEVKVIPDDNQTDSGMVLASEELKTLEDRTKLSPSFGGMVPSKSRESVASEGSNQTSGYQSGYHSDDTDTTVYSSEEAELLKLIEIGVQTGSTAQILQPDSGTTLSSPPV

Prothrombin = Prothrombin (Homo sapiens, UniProt P00734); format: functional
[17] = target: Voltage-gated inwardly rectifying potassium channel KCNH2 (Homo sapiens, UniProt Q12809); format: functional; details: read-out: AC50
Sequence of Voltage-gated inwardly rectifying potassium channel KCNH2 (Q12809 whole entry): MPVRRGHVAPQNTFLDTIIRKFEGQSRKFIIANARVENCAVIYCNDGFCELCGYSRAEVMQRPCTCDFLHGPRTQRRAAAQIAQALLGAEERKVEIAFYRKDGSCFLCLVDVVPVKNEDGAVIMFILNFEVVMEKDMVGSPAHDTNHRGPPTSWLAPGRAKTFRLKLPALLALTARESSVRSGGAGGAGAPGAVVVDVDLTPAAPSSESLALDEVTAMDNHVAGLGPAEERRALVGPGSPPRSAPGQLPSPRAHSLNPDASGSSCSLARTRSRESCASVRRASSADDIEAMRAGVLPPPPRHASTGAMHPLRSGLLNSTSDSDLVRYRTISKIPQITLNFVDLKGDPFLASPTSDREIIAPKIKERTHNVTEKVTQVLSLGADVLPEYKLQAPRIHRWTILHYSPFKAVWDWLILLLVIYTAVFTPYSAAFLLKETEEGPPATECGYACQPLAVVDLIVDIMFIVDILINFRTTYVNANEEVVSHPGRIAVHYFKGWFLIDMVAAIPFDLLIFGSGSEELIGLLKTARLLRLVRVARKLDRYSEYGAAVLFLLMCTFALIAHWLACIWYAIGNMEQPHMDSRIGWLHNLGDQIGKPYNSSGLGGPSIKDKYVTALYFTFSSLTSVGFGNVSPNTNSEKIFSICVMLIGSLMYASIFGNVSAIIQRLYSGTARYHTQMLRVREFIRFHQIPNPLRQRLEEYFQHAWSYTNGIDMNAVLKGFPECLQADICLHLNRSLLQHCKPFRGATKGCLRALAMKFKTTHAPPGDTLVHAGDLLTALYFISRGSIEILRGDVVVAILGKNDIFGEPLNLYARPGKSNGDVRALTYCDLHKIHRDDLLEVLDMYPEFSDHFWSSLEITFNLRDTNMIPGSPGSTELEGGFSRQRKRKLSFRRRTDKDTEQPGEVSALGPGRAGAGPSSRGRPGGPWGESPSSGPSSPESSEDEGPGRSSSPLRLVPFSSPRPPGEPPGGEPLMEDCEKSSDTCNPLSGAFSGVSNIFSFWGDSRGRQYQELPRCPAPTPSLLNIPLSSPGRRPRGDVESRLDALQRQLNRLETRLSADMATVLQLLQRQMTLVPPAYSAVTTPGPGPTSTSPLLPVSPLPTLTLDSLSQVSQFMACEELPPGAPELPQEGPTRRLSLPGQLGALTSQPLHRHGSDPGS

Estrogen receptor = target: T4, Estrogen receptor (Homo sapiens, UniProt P03372)
T4 sequence (P03372 whole entry): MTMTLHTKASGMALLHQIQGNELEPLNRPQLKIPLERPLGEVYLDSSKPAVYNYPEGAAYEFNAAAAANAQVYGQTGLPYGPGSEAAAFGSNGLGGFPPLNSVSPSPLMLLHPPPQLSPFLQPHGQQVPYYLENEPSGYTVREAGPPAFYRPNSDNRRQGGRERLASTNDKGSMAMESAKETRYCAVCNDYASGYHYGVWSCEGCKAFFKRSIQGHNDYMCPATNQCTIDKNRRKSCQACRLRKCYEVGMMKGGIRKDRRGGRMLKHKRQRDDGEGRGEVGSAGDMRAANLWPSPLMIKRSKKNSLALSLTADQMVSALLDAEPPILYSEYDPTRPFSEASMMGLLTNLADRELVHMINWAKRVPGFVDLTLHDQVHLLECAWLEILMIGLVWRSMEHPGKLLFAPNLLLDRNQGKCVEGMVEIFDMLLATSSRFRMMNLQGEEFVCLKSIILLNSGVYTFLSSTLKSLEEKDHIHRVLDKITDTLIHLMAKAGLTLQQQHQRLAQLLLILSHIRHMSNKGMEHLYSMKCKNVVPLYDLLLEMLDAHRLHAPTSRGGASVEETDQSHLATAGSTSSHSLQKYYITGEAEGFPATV

Measured: AC50
Further: assay procedure not described here.

Sequence of 5-hydroxytryptamine receptor 2A (P28223 whole entry): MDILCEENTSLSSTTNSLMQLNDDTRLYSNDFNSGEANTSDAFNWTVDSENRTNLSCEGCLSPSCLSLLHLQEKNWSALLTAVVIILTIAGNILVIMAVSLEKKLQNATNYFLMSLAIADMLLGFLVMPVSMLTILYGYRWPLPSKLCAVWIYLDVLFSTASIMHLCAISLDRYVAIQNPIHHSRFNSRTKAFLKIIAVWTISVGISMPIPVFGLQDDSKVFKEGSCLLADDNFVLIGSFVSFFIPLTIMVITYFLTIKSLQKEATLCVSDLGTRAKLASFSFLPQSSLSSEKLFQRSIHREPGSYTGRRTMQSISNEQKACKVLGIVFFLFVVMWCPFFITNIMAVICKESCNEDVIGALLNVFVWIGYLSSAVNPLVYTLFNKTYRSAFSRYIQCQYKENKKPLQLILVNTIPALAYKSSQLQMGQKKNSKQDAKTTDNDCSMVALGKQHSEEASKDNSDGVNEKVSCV

CCN(CC)C(=O)C1(c2ccccc2)CC1CN (configuration not stated)
> 30 µM: [1] | [2] | [3] | [4] | [5] | [6] | D(1A) dopamine receptor [7] | [8] | Histamine H3 receptor | [9]

CN(C)C(=O)Oc1cccc([N+](C)(C)C)c1 [NEOSTIGMINE]
> 30 µM: D(1A) dopamine receptor [10] | [11] | Mu-type opioid receptor | [12] | [13] | [14] | [15] | Thromboxane A2 receptor | [16] | Prothrombin | [17] | Estrogen receptor
